In ChEMBL document CHEMBL3525978, “Preferred binding orientations of phenacetin in CYP1A1 and CYP1A2 are associated with isoform-selective metabolism” (Drug Metab Dispos, 2012):

Tests used:
Format in all cases: ADME
Cytochrome P450 1A1 = target: T1, Cytochrome P450 1A1 (Homo sapiens, UniProt P04798); assay: Ratio of Kcat to Km for CYP1A1 (unknown origin) expressed in Escherichia coli DH5alpha preincubated for 5 mins before NADPH addition measured after 30 mins by HPLC analysis; settings: 0.5 h
T1 sequence (P04798 whole entry): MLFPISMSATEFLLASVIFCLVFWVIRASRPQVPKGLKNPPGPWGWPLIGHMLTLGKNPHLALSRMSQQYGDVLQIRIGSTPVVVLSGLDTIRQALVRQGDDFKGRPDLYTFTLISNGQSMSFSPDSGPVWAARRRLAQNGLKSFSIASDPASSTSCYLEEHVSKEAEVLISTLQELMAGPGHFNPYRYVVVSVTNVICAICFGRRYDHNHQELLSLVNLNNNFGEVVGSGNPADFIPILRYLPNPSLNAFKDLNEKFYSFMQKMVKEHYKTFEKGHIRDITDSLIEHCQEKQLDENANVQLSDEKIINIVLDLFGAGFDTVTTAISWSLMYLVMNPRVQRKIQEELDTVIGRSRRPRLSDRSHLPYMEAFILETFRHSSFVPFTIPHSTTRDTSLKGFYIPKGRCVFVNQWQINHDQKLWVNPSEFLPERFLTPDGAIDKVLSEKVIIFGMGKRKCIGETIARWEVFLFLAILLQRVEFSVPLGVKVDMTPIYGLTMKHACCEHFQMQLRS

Cytochrome P450 1A2 = target: T2, Cytochrome P450 1A2 (Homo sapiens, UniProt P05177); assay: Ratio of Kcat to Km for CYP1A2 (unknown origin) expressed in Escherichia coli DH5alpha preincubated for 5 mins before NADPH addition measured after 30 mins by HPLC analysis; settings: 0.5 h
T2 sequence (P05177 whole entry): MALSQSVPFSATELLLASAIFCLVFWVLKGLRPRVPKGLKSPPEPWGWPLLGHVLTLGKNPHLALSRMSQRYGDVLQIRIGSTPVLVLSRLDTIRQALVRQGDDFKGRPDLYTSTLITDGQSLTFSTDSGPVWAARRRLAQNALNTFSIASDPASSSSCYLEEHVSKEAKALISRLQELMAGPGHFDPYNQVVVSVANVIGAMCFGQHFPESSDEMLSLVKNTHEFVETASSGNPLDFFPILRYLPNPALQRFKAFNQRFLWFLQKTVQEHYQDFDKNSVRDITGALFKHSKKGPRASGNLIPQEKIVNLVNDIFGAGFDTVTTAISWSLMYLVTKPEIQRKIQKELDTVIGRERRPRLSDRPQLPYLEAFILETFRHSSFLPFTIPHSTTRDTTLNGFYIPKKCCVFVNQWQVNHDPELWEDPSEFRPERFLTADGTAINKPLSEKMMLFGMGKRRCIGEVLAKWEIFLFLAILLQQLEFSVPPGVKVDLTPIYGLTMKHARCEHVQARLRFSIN

[1] = Ratio of Kcat for CYP1A2 (unknown origin) expressed in Escherichia coli DH5alpha to Kcat for CYP1A1 (unknown origin) expressed in Escherichia coli DH5alpha; settings: human
CYP1A1, CYP1A2 = assay: Ratio of Km for CYP1A1 (unknown origin) expressed in Escherichia coli DH5alpha to Km for CYP1A2 (unknown origin) expressed in Escherichia coli DH5alpha; settings: human

SMILES	Kcat/Km (Cytochrome P450 1A1)	Kcat/Km (Cytochrome P450 1A2)	Ratio [1]	selectivity ratio (CYP1A1, CYP1A2)
CC(=O)Nc1ccc(O)cc1 [ACETAMINOPHEN]	0.001	0.018		
CCOc1ccc(NC(C)=O)cc1 [PHENACETIN]			2.5	8
